Laboratory results published in PubChem BioAssay AID328 (DTP/NCI, 2004).
Values joined by “and” are separate entries in the source; they are usually repeats but may differ in a detail not shown here. Equal values may be shown once. Toxic doses and inconclusive results are not listed.

System: BDF1 mice, P388 leukemia ip, median survival T/C
Test: NCI In Vivo Anticancer Drug Screen. Data for tumor model P388 Leukemia (intraperitoneal) in B6D2F1 (BDF1) mice
Details: endpoint: median survival time, higher = longer survival
Procedure, shortened: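 Reported as T/C, where T is the survival measurement in dosed animals and C the same measurement in vehicle controls.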

[1] = dose: 50.0 mg/kg/injection, schedule: Q04DX003 (ip), vehicle: saline with Tween-80
[2] = dose: 100.0 mg/kg/injection, schedule: Q04DX003 (ip), vehicle: saline with Tween-80
[3] = dose: 200.0 mg/kg/injection, schedule: Q04DX003 (ip), vehicle: saline with Tween-80
[4] = dose: 400.0 mg/kg/injection, schedule: Q04DX003 (ip), vehicle: saline with Tween-80
[5] = dose: 25.0 mg/kg/injection, schedule: Q04DX003 (ip), vehicle: Klucel (hydroxypropylcellulose) (HPC)
[6] = dose: 50.0 mg/kg/injection, schedule: Q04DX003 (ip), vehicle: Klucel (hydroxypropylcellulose) (HPC)
[7] = dose: 100.0 mg/kg/injection, schedule: Q04DX003 (ip), vehicle: Klucel (hydroxypropylcellulose) (HPC)
[8] = dose: 400.0 mg/kg/injection, schedule: Q04DX003 (ip), vehicle: Klucel (hydroxypropylcellulose) (HPC)
[9] = dose: 50.0 mg/kg/injection, schedule: Q01DX009 (ip), vehicle: Klucel (hydroxypropylcellulose) (HPC)
[10] = dose: 12.5 mg/kg/injection, schedule: Q01DX009 (ip), vehicle: saline with Tween-80
[11] = dose: 6.25 mg/kg/injection, schedule: Q01DX009 (ip), vehicle: saline
[12] = dose: 100.0 mg/kg/injection, schedule: Q01DX009 (ip), vehicle: saline with Tween-80
[13] = dose: 200.0 mg/kg/injection, schedule: Q01DX009 (ip), vehicle: saline with Tween-80
[14] = dose: 50.0 mg/kg/injection, schedule: Q01DX009 (ip), vehicle: saline with Tween-80
[15] = dose: 100.0 mg/kg/injection, schedule: Q01DX009 (ip), vehicle: Klucel (hydroxypropylcellulose) (HPC)
[16] = dose: 200.0 mg/kg/injection, schedule: Q01DX009 (ip), vehicle: Klucel (hydroxypropylcellulose) (HPC)
[17] = dose: 400.0 mg/kg/injection, schedule: Q01DX009 (ip), vehicle: Klucel (hydroxypropylcellulose) (HPC)
[18] = dose: 12.5 mg/kg/injection, schedule: Q01DX009 (ip), vehicle: saline

For `CC(C)C(NC(=O)CN)C(=O)OCCCCS(=O)(=O)c1ccc(CO)cc1` (stereo not drawn), the T/C (dose: 50.0 mg/kg/injection, schedule: Q01DX005 (ip), vehicle: suspension in saline) was 100 % of control, the T/C (dose: 100.0 mg/kg/injection, schedule: Q01DX005 (ip), vehicle: suspension in saline) was 100 % of control and the T/C (dose: 200.0 mg/kg/injection, schedule: Q01DX005 (ip), vehicle: suspension in saline) was 95 % of control.

In the case of `O=c1oc2ccccc2c2c1C(c1ccccc1)C=C(c1ccccc1)O2` (stereo not drawn), the T/C [1] was 96 % of control, the T/C [2] was 91 % of control and the T/C [3] was 91 % of control. The T/C [4] was 95 % of control.

In the case of `Cc1ccc(S(=O)(=O)N/N=C/c2ccccc2)cc1`, the T/C [5] was 93 % of control, the T/C [6] was 97 % of control and the T/C [7] was 103 % of control. For the same compound, the T/C [8] was 106 % of control.

With `O=C(CCl)Nc1cc(Cl)ccc1N1CCCC1` the T/C (dose: 12.5 mg/kg/injection, schedule: Q01DX001 (ip), vehicle: Klucel (hydroxypropylcellulose) (HPC)) was 118 % of control, the T/C (dose: 12.5 mg/kg/injection, schedule: Q04DX003 (ip), vehicle: Klucel (hydroxypropylcellulose) (HPC)) was 90 % of control and the T/C (dose: 25.0 mg/kg/injection, schedule: Q01DX001 (ip), vehicle: Klucel (hydroxypropylcellulose) (HPC)) was 104 % of control. The T/C (dose: 25.0 mg/kg/injection, schedule: Q01DX009 (ip), vehicle: Klucel (hydroxypropylcellulose) (HPC)) was 95 % of control, the T/C [5] was 104 % of control and the T/C (dose: 50.0 mg/kg/injection, schedule: Q01DX001 (ip), vehicle: Klucel (hydroxypropylcellulose) (HPC)) was 104 % of control. For the same compound, the T/C [9] was 90 % of control, the T/C [6] was 104 % of control and the T/C (dose: 75.0 mg/kg/injection, schedule: Q01DX001 (ip), vehicle: Klucel (hydroxypropylcellulose) (HPC)) was 95 % of control. For the same compound, the T/C (dose: 115.0 mg/kg/injection, schedule: Q01DX001 (ip), vehicle: Klucel (hydroxypropylcellulose) (HPC)) was 95 % of control.

For `CC1CCC2(C(=O)O)CCC3(C)C(=CCC4C5(C)CC(O)C(O)C(C)(C(=O)O)C5CCC43C)C2C1(C)O` (stereo not drawn), the T/C (dose: 100.0 mg/kg/injection, schedule: Q01DX001 (ip), vehicle: saline with Tween-80) was 104 % of control and the T/C (dose: 200.0 mg/kg/injection, schedule: Q01DX001 (ip), vehicle: saline with Tween-80) was 100 % of control.

For `NC(=S)N/N=C/c1ccc(OC(=O)Cc2ccccc2)cn1`, the T/C [10] was 150 % of control.

For `CCCCCCCCCC[N+](C)(C)CCC[N+](C)(C)CCCCCCCCCC`, the T/C (dose: 0.78 mg/kg/injection, schedule: Q01DX009 (ip), vehicle: saline) was 87 % of control, the T/C (dose: 1.56 mg/kg/injection, schedule: Q01DX009 (ip), vehicle: saline) was 98 % of control and the T/C (dose: 3.12 mg/kg/injection, schedule: Q01DX009 (ip), vehicle: saline) was 100 % of control. The T/C (dose: 3.13 mg/kg/injection, schedule: Q01DX009 (ip), vehicle: saline) was 120 % of control and the T/C [11] was 116 % of control and 123 % of control.

With `CC(C)(C1c2ccccc2C(=NO)c2ccccc21)[N+](=O)[O-]` (stereo not drawn) the T/C [12] was 109 % of control, the T/C [2] was 91 % of control and the T/C [13] was 90 % of control. For the same compound, the T/C [3] was 100 % of control, the T/C (dose: 400.0 mg/kg/injection, schedule: Q01DX009 (ip), vehicle: saline with Tween-80) was 100 % of control and the T/C [4] was 91 % of control.

With `COc1ccc(C(=O)C(C)Br)c(OCc2ccccc2)c1OC` (stereo not drawn) the T/C [10] was 100 % of control, the T/C (dose: 25.0 mg/kg/injection, schedule: Q01DX009 (ip), vehicle: saline with Tween-80) was 95 % of control and the T/C [14] was 100 % of control. The T/C [12] was 90 % of control, the T/C [2] was 95 % of control and the T/C [13] was 95 % of control. The T/C [3] was 114 % of control and the T/C [4] was 104 % of control.

In the case of `Cc1ccccc1NS(=O)(=O)c1c([N+](=O)[O-])ncn1C`, the T/C [9] was 110 % of control, the T/C [15] was 116 % of control and the T/C [16] was 116 % of control. For the same compound, the T/C [17] was 95 % of control.

In the case of `Cc1ccc(NC(=O)CC#N)c(C)c1`, the T/C (dose: 100.0 mg/kg/injection, schedule: Q04DX003 (ip), vehicle: saline) was 109 % of control, the T/C (dose: 200.0 mg/kg/injection, schedule: Q04DX003 (ip), vehicle: saline) was 100 % of control and the T/C (dose: 400.0 mg/kg/injection, schedule: Q04DX003 (ip), vehicle: saline) was 92 % of control.

With `O=[N+]([O-])c1ccc(N=Cc2ccc3c(c2)OCO3)cc1` the T/C (dose: 100.0 mg/kg/injection, schedule: Q01DX001 (ip), vehicle: Klucel (hydroxypropylcellulose) (HPC)) was 100 % of control, the T/C (dose: 200.0 mg/kg/injection, schedule: Q01DX001 (ip), vehicle: Klucel (hydroxypropylcellulose) (HPC)) was 95 % of control and the T/C (dose: 400.0 mg/kg/injection, schedule: Q01DX001 (ip), vehicle: Klucel (hydroxypropylcellulose) (HPC)) was 95 % of control.

`CC1CCOS(=O)O1` (stereo not drawn) was tested, and the T/C (dose: 10.0 mg/kg/injection, schedule: Q01DX010 (ip), vehicle: saline) was 100 % of control, the T/C (dose: 20.0 mg/kg/injection, schedule: Q01DX010 (ip), vehicle: saline) was 95 % of control and 104 % of control and the T/C (dose: 40.0 mg/kg/injection, schedule: Q01DX010 (ip), vehicle: saline) was 100 % of control and 104 % of control.

With `CCCCOP(=O)(O)CCCC.[Al]` the T/C (dose: 12.5 mg/kg/injection, schedule: Q04DX003 (ip), vehicle: saline with Tween-80) was 97 % of control, the T/C (dose: 25.0 mg/kg/injection, schedule: Q04DX003 (ip), vehicle: saline with Tween-80) was 97 % of control and the T/C [1] was 91 % of control.

In the case of `C/C=C1\CCC2C(=C1C)CC1C2CC=C2CC(OC(C)=O)CCC21C` (stereo not drawn), the T/C [15] was 115 % of control, the T/C [16] was 120 % of control and the T/C [17] was 105 % of control.

For `COc1cc2c(cc1OC)/C(=C1\OC(=O)c3c1ccc1c3OCO1)N(C)CC2`, the T/C [2] was 100 % of control, the T/C [3] was 92 % of control and the T/C [4] was 88 % of control.

`COc1cc2ccc3c(c2cc1OC)CN(Cc1ccccc1)CC3` was tested, and the T/C [7] was 100 % of control, the T/C (dose: 200.0 mg/kg/injection, schedule: Q04DX003 (ip), vehicle: Klucel (hydroxypropylcellulose) (HPC)) was 109 % of control and the T/C [8] was 100 % of control.

In the case of `OCC(Br)(Br)Br`, the T/C (dose: 100.0 mg/kg/injection, schedule: Q01DX009 (ip), vehicle: other) was 95 % of control and the T/C (dose: 200.0 mg/kg/injection, schedule: Q01DX009 (ip), vehicle: other) was 95 % of control.

In the case of `COc1ccc(NCNc2ccc(OC)cc2)cc1`, the T/C [5] was 110 % of control, the T/C [6] was 105 % of control and the T/C [7] was 110 % of control.

In the case of `O=[N+]([O-])c1cccc(C[n+]2ccccc2C2OCCO2)c1`, the T/C (dose: 8.75 mg/kg/injection, schedule: Q01DX009 (ip), vehicle: saline) was 104 % of control, the T/C (dose: 17.5 mg/kg/injection, schedule: Q01DX009 (ip), vehicle: saline) was 100 % of control and the T/C (dose: 26.25 mg/kg/injection, schedule: Q04DX003 (ip), vehicle: saline) was 100 % of control. The T/C (dose: 35.0 mg/kg/injection, schedule: Q01DX009 (ip), vehicle: saline) was 109 % of control and the T/C (dose: 52.5 mg/kg/injection, schedule: Q04DX003 (ip), vehicle: saline) was 95 % of control.

In the case of `CC1c2ccccc2N(S(=O)(=O)c2ccccc2)C1C` (stereo not drawn), the T/C (dose: 100.0 mg/kg/injection, schedule: Q01DX009 (ip), vehicle: gum acacia) was 107 % of control, the T/C (dose: 200.0 mg/kg/injection, schedule: Q01DX009 (ip), vehicle: gum acacia) was 92 % of control and the T/C (dose: 400.0 mg/kg/injection, schedule: Q01DX009 (ip), vehicle: gum acacia) was 100 % of control.

With `CC(C)(C)c1ccc(OCc2cnc[nH]2)cc1` the T/C (dose: 100.0 mg/kg/injection, schedule: Q01DX001 (ip), vehicle: saline) was 113 % of control.

`CCOC(=O)C(C)(C)CN(CC(C)(C)C(=O)OCC)c1ccccc1` was tested, and the T/C [2] was 115 % of control, the T/C [3] was 115 % of control and the T/C [4] was 120 % of control.

`NC(=O)CC[n+]1ccccc1` was tested, and the T/C [18] was 94 % of control, the T/C (dose: 25.0 mg/kg/injection, schedule: Q01DX009 (ip), vehicle: saline) was 100 % of control and the T/C (dose: 50.0 mg/kg/injection, schedule: Q01DX009 (ip), vehicle: saline) was 99 % of control.

In the case of `CC1CCC2C(C1)N(C(C)C)OC2(C)C` (stereo not drawn), the T/C [2] was 109 % of control, the T/C [3] was 100 % of control and the T/C [4] was 90 % of control.

With `NC1CCCCC1.[O]=[Cr](=[O])([OH])[OH]` the T/C [11] was 100 % of control and the T/C [18] was 90 % of control.

In the case of `CCC(C)Sc1nc(N)nc2c1ncn2C1OC(CO)C(O)C1O` (stereo not drawn), the T/C [2] was 91 % of control and 109 % of control and the T/C [3] was 108 % of control and 118 % of control.

With `COc1cccc(CCCC(=O)C(C)(C)S(C)=O)c1` (stereo not drawn) the T/C [14] was 103 % of control, the T/C [12] was 95 % of control and the T/C [13] was 103 % of control.
